Like-named read-outs stand apart in the source and are kept apart here.
Experiments:
[1] = molecular target: T1, Melanocarpus albomyces laccase MaL (Melanocarpus albomyces, UniProt Q70KY3); test: Kinetic parameters of Melanocarpus albomyces laccase MaL (comparison); assay type: biochemical
T1 sequence (Q70KY3 51-609): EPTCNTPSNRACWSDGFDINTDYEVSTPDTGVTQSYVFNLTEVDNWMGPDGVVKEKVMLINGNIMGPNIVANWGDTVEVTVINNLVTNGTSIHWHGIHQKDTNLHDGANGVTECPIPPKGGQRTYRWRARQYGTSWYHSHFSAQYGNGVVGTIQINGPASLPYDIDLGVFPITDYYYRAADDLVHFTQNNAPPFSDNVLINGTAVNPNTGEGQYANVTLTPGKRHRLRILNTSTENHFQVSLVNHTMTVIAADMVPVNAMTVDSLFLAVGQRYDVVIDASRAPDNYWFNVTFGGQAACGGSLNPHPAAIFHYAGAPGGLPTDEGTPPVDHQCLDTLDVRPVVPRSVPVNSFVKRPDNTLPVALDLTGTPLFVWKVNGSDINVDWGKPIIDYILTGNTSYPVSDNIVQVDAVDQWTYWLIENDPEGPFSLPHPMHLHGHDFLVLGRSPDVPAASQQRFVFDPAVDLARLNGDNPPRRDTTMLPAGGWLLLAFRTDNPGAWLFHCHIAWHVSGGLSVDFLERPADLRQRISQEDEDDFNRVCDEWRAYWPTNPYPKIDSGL
Procedure: (§1) On syringaldazin and DMP 40 mM MES buffer, pH 6 and 25 mM succinate buffer. All activity assays were carried out at 25° C. Kinetic parameters were estimated by a nonlinear regression curve fit. The values were compared to those of Melanocarpus albomyces MaL, laccase.

[2] = molecular target: T2, Thielavia arenaria ALKO4197 laccase TaLcc1, recombinant (rTaLcc1, expressed in Trichoderma reesei), SEQ ID NO: 12 (Canariomyces arenarius, UniProt F6N9E7); assay type: biochemical
T2 construct: predicted mature residues 22-604; no tag stated
T2 sequence (F6N9E7 with tags, fused parts or gaps): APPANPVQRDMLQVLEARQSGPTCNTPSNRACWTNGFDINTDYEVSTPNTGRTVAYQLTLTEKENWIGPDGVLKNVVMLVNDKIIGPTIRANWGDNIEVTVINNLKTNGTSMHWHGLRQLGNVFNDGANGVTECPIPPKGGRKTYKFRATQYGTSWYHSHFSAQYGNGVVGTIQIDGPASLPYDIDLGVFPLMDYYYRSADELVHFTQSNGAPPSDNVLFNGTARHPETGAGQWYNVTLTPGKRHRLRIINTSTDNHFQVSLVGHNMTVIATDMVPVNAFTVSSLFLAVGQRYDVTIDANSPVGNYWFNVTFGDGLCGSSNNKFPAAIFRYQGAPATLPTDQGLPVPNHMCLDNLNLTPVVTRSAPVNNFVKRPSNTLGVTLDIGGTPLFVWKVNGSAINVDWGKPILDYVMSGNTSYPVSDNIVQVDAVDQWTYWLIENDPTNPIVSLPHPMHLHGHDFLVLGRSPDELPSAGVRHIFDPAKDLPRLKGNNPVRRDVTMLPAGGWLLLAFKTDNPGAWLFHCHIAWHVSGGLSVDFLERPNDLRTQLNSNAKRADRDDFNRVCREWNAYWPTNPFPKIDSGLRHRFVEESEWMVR
Procedure: as §1

[3] = Denim bleaching: laccase-mediator (100 nkat/g, 5 mg/g, 30 min, 60° C.) compared to sodium hypochlorite (15 min, 40° C.)
Procedure: Different types of demin were treated with a TaLcc1 laccase product from Trichoderma strain RF5597 and DeniLite II Base from Novozymes and the results obtained were compared to hypochlorite bleaching. All together 27 pieces of different kinds of denim (whole jeans), which had been previously washed with cellulase after desizing to different abrasion levels or had been only desized with ECOSTONE®A200 (60° C., 10 min), were collected for the test (Table 15). The jeans were made of Indigo dyed denim, except the English jeans contained Indigo dyed denim with sulphur bottom. Jeans were cut in such a way that pieces from the same pair of jeans could be used for all tests.
The jeans were made of Indigo dyed denim (right hand twill), except the English jeans contained Indigo dyed denim with sulphur bottom. The weights of the original (i.e. not desized) denim fabrics were typically higher than 475 g/m^2 (14 oz/yd^2). The weights of three 10 cm×10 cm pieces were measured after 24 hours incubation at room temperature (ca. 22° C. and at relative moisture ca. 64%).
The laccase treatments were performed with Electrolux's Wascator FOM 71 CLS washer extractor under optimal conditions for each enzyme, described in Table 16. Methyl syringate (Example 7) was used as a mediator. Laccase was inactivated after draining by raising the pH above 11 by NaOH (10 min, 60° C.) and rinsing for three times. The fabrics were dried in a tumbler.
The sodium hypochlorite bleaching was performed with Electrolux's Wascator FOM 71 CLS washer extractor using denim obtained from the same jeans as in laccase treatments under conditions described in Table 17. Sodium hydroxide was added before adding 25 ml/l of 10% sodium hypochlorite solution (Klorite Forte, Farmos Oy) to keep the pH above 10.5 during the treatment. After draining the bleach liquor, there was one 2 minutes rinsing step with the liquor ratio of 1:20 before dechlorinating with sodium thiosulphate. After dechlorinating the denim samples were rinsed 3 times for 2 minutes with the liquor ratio of 1:20. The fabrics were dried in a tumbler.
The bleaching effect was evaluated by measuring the colour as reflectance values as in Example 7. […] Different looks were obtained depending on the type of the denim and cellulase treatment used. “Sulphur-bottom type” denim was the most difficult to bleach.

[4] = substrate: COc1cc(/C=N/N=C/c2cc(OC)c(O)c(OC)c2)cc(OC)c1O; test: purified protein, by the assay type; assay type: biochemical, Thielavia arenaria; conditions: other: syringaldazin and DMP, 40 mM MES buffer, pH 6 and 25 mM succinate buffer, 25° C.
Procedure: as §1

[5] = syringaldazin and DMP, 40 mM MES buffer, pH 6 and 25 mM succinate buffer, 25° C.
[6] = ABTS, 25 mM succinate buffer, pH 4.5, 25° C.
[7] = sample B1: Basic Jeans, Ecostone P1250
[8] = sample E1: English jeans (sulphur bottom), desized only
[9] = sample E2: English jeans, Ecostone NP2000
[10] = sample E3: English jeans, Rocksoft NCE-EA
[11] = sample E4: English jeans, Rocksoft NCE-2X
[12] = sample E5: English jeans, Ecostone L900
[13] = sample E6: English jeans, Ecostone L900
[14] = sample E7: English jeans, Ecostone L900
[15] = sample L1: Lee Cooper jeans, desized only
[16] = sample L2: Lee Cooper jeans, Ecostone L
[17] = sample L3: Lee Cooper jeans, Biotouch C29
[18] = sample L4: Lee Cooper jeans, Ecostone L
[19] = sample L5: Lee Cooper jeans, Indiage Max L
[20] = sample L6: Lee Cooper jeans, Indiage Super L
[21] = sample L7: Lee Cooper jeans, Ecostone CXP500 Exper.
[22] = sample L8: Lee Cooper jeans, Ecostone CXP experimental
[23] = sample L9: Lee Cooper jeans, Ecostone N400
[24] = sample T1: Tincan jeans, desized only
[25] = sample T2: Tincan jeans, Ecostone N400
[26] = sample T3: Tincan jeans, Ecostone L300
[27] = sample T4: Tincan jeans, Denimax 991S
[28] = sample W1: Warric jeans, desized only
[29] = sample W2: Warric jeans, Ecostone P4500
[30] = sample W3: Warric jeans, Indiage Max G
[31] = sample W4: Warric jeans, Ecostone NP2000
[32] = sample W5: Warric jeans, Ecostone L900
[33] = sample W6: Warric jeans, Denabraide MBL 65 E

## COc1cc(/C=N/N=C/c2cc(OC)c(O)c(OC)c2)cc(OC)c1O [Syringaldazin, syringaldazine]
[1]; [5]
  kcat: 78.5 s⁻¹

## COc1cccc(OC)c1O [DMP, 2,6-dimethoxy phenol]
[2]; [5]
  kcat: 67.17 s⁻¹
[1]; [5]
  kcat: 69.33 s⁻¹

## CCn1c(=NN=c2sc3cc(S(=O)(=O)O)ccc3n2CC)sc2cc(S(=O)(=O)O)ccc21 [ABTS, 2,2′azinobis-3-ethylbenzthiazole-6-sulphonate]
[2]; [6]
  Km: 75 µM
  kcat: 68.83 s⁻¹
[1]; pH 4.5
  kcat: 78.17 s⁻¹

## OCl [sodium hypochlorite, reference compound]
[3]; [7]
  L* after treatment: 40.62
  b* after treatment: −17.37
[3]; [8]
  L* after treatment: 21.91
  b* after treatment: −15.03
[3]; [9]
  L* after treatment: 33.30
  b* after treatment: −16.43
[3]; [10]
  Increase of L*: 9.40
  L* after treatment: 34.13
  b* after treatment: −16.73
[3]; [11]
  L* after treatment: 35.83
  b* after treatment: −16.86
[3]; [12]
  L* after treatment: 33.85
  b* after treatment: −16.48
[3]; [13]
  L* after treatment: 30.61
  b* after treatment: −16.65
[3]; [14]
  L* after treatment: 32.36
  b* after treatment: −16.75
[3]; [15]
  L* after treatment: 31.23
  b* after treatment: −20.83
[3]; [16]
  L* after treatment: 44.11
  b* after treatment: −18.60
[3]; [17]
  L* after treatment: 39.71
  b* after treatment: −19.67
[3]; [18]
  L* after treatment: 40.63
  b* after treatment: −19.25
[3]; [19]
  L* after treatment: 39.47
  b* after treatment: −19.48
[3]; [20]
  L* after treatment: 41.50
  b* after treatment: −18.68
[3]; [21]
  L* after treatment: 37.91
  b* after treatment: −19.85
[3]; [22]
  L* after treatment: 40.74
  b* after treatment: −19.12
[3]; [23]
  L* after treatment: 40.82
  b* after treatment: −18.82
[3]; [24]
  L* after treatment: 33.97
  b* after treatment: −17.95
[3]; [25]
  L* after treatment: 34.38
  b* after treatment: −18.22
[3]; [26]
  L* after treatment: 40.33
  b* after treatment: −18.30
[3]; [27]
  L* after treatment: 37.66
  b* after treatment: −18.58
[3]; [28]
  L* after treatment: 27.75
  b* after treatment: −18.76
[3]; [29]
  L* after treatment: 39.35
  b* after treatment: −17.39
[3]; [30]
  L* after treatment: 41.11
  b* after treatment: −16.79
[3]; [31]
  L* after treatment: 38.07
  b* after treatment: −17.33
[3]; [32]
  L* after treatment: 37.12
  b* after treatment: −18.03
[3]; [33]
  L* after treatment: 36.65
  b* after treatment: −17.95

B1: Thielavia arenaria ALKO4197 laccase TaLcc1, recombinant (rTaLcc1, expressed in Trichoderma reesei), SEQ ID NO: 12 (Canariomyces arenarius) (protein)
chain: APPANPVQRDMLQVLEARQSGPTCNTPSNRACWTNGFDINTDYEVSTPNTGRTVAYQLTLTEKENWIGPDGVLKNVVMLVNDKIIGPTIRANWGDNIEVTVINNLKTNGTSMHWHGLRQLGNVFNDGANGVTECPIPPKGGRKTYKFRATQYGTSWYHSHFSAQYGNGVVGTIQIDGPASLPYDIDLGVFPLMDYYYRSADELVHFTQSNGAPPSDNVLFNGTARHPETGAGQWYNVTLTPGKRHRLRIINTSTDNHFQVSLVGHNMTVIATDMVPVNAFTVSSLFLAVGQRYDVTIDANSPVGNYWFNVTFGDGLCGSSNNKFPAAIFRYQGAPATLPTDQGLPVPNHMCLDNLNLTPVVTRSAPVNNFVKRPSNTLGVTLDIGGTPLFVWKVNGSAINVDWGKPILDYVMSGNTSYPVSDNIVQVDAVDQWTYWLIENDPTNPIVSLPHPMHLHGHDFLVLGRSPDELPSAGVRHIFDPAKDLPRLKGNNPVRRDVTMLPAGGWLLLAFKTDNPGAWLFHCHIAWHVSGGLSVDFLERPNDLRTQLNSNAKRADRDDFNRVCREWNAYWPTNPFPKIDSGLRHRFVEESEWMVR
notes: predicted mature residues 22-604; no tag stated
[4]
  Km: 4.3 µM
  kcat: 32.3 s⁻¹
  kcat/Km: 7.52e+06 M⁻¹ s⁻¹

Source: US7927849B2, “Laccase enzyme and use thereof” (AB Enzymes OY, priority 2004, dated 2011)
